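Five compound concentrations were applied to cells in 96-well plates for 48 hours; endpoints were derived by simple linear interpolation of the resulting dose-response curve. GI50 is the concentration that inhibits growth by half. At the TGI there is no net growth.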
What was measured:
Test in all cases: NCI-60 cell line screen, 48 h
[1] = test system: 786-0 renal
[2] = test system: A498 renal
[3] = test system: A549 NSCLC
[4] = test system: ACHN renal
[5] = test system: BT-549 breast
[6] = test system: CAKI-1 renal
[7] = test system: CCRF-CEM leukemia
[8] = test system: COLO 205 colon
[9] = test system: DU-145 prostate
[10] = test system: EKVX NSCLC
[11] = test system: HCC-2998 colon
[12] = test system: HCT-116 colon
[13] = test system: HCT-15 colon
[14] = test system: HL-60(TB) leukemia
[15] = test system: HOP-62 NSCLC
[16] = test system: HOP-92 NSCLC
[17] = test system: HS 578T breast
[18] = test system: HT29 colon
[19] = test system: IGROV1 ovarian
[20] = test system: KM12 colon
[21] = test system: LOX IMVI melanoma
[22] = test system: M14 melanoma
[23] = test system: MALME-3M melanoma
[24] = test system: MCF7 breast
[25] = test system: MDA-MB-231 breast
[26] = test system: MDA-MB-435
[27] = test system: MDA-MB-468 breast
[28] = test system: MOLT-4 leukemia
[29] = test system: NCI-H226 lung
[30] = test system: NCI-H23 lung
[31] = test system: NCI-H460 lung
[32] = test system: NCI-H522 lung
[33] = test system: OVCAR-3 ovarian
[34] = test system: OVCAR-4 ovarian
[35] = test system: OVCAR-5 ovarian
[36] = test system: OVCAR-8 ovarian
[37] = test system: PC-3 prostate
[38] = test system: RPMI-8226 leukemia
[39] = test system: RXF 393 renal
[40] = test system: SF-268 CNS
[41] = test system: SF-295 CNS
[42] = test system: SF-539 CNS
[43] = test system: SK-MEL-2 melanoma
[44] = test system: SK-MEL-28 melanoma
[45] = test system: SK-MEL-5 melanoma
[46] = test system: SK-OV-3 ovarian
[47] = test system: SN12C renal
[48] = test system: SNB-19 CNS
[49] = test system: SNB-75 CNS
[50] = test system: SR leukemia
[51] = test system: SW-620 colon
[52] = test system: T-47D breast
[53] = test system: TK-10 renal
[54] = test system: U251 CNS
[55] = test system: UACC-257 melanoma
[56] = test system: UACC-62 melanoma
[57] = test system: UO-31 renal
[58] = test system: K-562 leukemia

## CSc1ccccc1NC(=O)c1ccc2nn(/C(C#N)=C/c3ccccn3)nc2c1
[1]
  GI50: 3.68 µM
  TGI: 12.4 µM
[2]
  GI50: 16 µM
  TGI: 29.7 µM
[3]
  GI50: 12.2 µM
  TGI: 28.5 µM
[4]
  GI50: 2.1 µM
  TGI: 4.42 µM
[5]
  GI50: 6.17 µM
  TGI: 18.7 µM
[6]
  GI50: 2.78 µM
  TGI: 10.8 µM
[7]
  GI50: 3.13 µM
  TGI: 30.7 µM
[8]
  GI50: 1.96 µM
  TGI: 4.25 µM
[9]
  GI50: 4.38 µM
  TGI: 15 µM
[10]
  GI50: 9.18 µM
  TGI: 21.6 µM
[11]
  GI50: 4.08 µM
  TGI: 14.6 µM
[12]
  GI50: 2.14 µM
  TGI: 4.72 µM
[13]
  GI50: 1.73 µM
  TGI: 3.53 µM
[14]
  GI50: 2.07 µM
  TGI: 6.58 µM
[15]
  GI50: 13.1 µM
  TGI: 27.2 µM
[16]
  GI50: 6.41 µM
  TGI: 23.9 µM
[17]
  GI50: 3.19 µM
  TGI: 14.3 µM
[18]
  GI50: 3.09 µM
  TGI: 10.1 µM
[19]
  GI50: 4.52 µM
  TGI: 15.9 µM
[20]
  GI50: 7.64 µM
  TGI: 24.2 µM
[21]
  GI50: 1.72 µM
  TGI: 3.28 µM
[22]
  GI50: 2.96 µM
  TGI: 10.4 µM
[23]
  GI50: 2 µM
  TGI: 4.25 µM
[24]
  GI50: 3 µM
  TGI: 13.1 µM
[25]
  GI50: 2.91 µM
  TGI: 8.48 µM
[26]
  GI50: 2.67 µM
  TGI: 9.09 µM
[27]
  GI50: 1.84 µM
  TGI: 4.2 µM
[28]
  GI50: 2.68 µM
  TGI: 7.74 µM
[29]
  GI50: 13.5 µM
  TGI: 28.5 µM
[30]
  GI50: 5.13 µM
  TGI: 18.2 µM
[31]
  GI50: 3.16 µM
  TGI: 11.6 µM
[32]
  GI50: 1.65 µM
  TGI: 3.43 µM
[33]
  GI50: 2.29 µM
  TGI: 5.95 µM
[34]
  GI50: 6.5 µM
  TGI: 19.5 µM
[35]
  GI50: 4.69 µM
  TGI: 17.5 µM
[36]
  GI50: 3.14 µM
  TGI: 11.7 µM
[37]
  GI50: 7.04 µM
  TGI: 23.7 µM
[38]
  GI50: 2.63 µM
  TGI: 8.32 µM
[39]
  GI50: 1.78 µM
  TGI: 4.16 µM
[40]
  GI50: 10.3 µM
  TGI: 28.1 µM
[41]
  GI50: 13.8 µM
  TGI: 27.3 µM
[42]
  GI50: 2.8 µM
  TGI: 8.64 µM
[43]
  GI50: 6.47 µM
  TGI: 20 µM
[44]
  GI50: 2.06 µM
  TGI: 4.57 µM
[45]
  GI50: 4.99 µM
  TGI: 17.2 µM
[46]
  GI50: 16 µM
  TGI: 30.1 µM
[47]
  GI50: 4.53 µM
  TGI: 16.1 µM
[48]
  GI50: 12.8 µM
  TGI: 26.5 µM
[49]
  GI50: 5.8 µM
  TGI: 20.6 µM
[50]
  GI50: 2.35 µM
  TGI: 7.96 µM
[51]
  GI50: 2.29 µM
  TGI: 5.39 µM
[52]
  GI50: 3.5 µM
  TGI: 16.6 µM
[53]
  GI50: 4.26 µM
  TGI: 15.9 µM
[54]
  GI50: 4.35 µM
  TGI: 15.7 µM
[55]
  GI50: 2.57 µM
  TGI: 7.49 µM
[56]
  GI50: 3.77 µM
  TGI: 14.6 µM
[57]
  GI50: 2.01 µM
  TGI: 4.74 µM

## Clc1ccccc1Nc1nnc(-c2c[nH]c3ccccc23)o1
[1]
  GI50: 9.52 µM
  TGI: 28.1 µM
[2]
  GI50: 18.8 µM
  TGI: 50.8 µM
[3]
  GI50: 1.73 µM
  TGI: > 100 µM
[4]
  GI50: 1.49 µM
  TGI: 37.5 µM
[5]
  GI50: 2.27 µM
  TGI: 34.6 µM
[6]
  GI50: 0.647 µM
  TGI: 33.2 µM
[7]
  GI50: 0.501 µM
  TGI: 26.5 µM
[8]
  GI50: 0.867 µM
  TGI: 11.7 µM
[9]
  GI50: 2.78 µM
  TGI: 56.9 µM
[10]
  GI50: 3.05 µM
  TGI: 77.7 µM
[11]
  GI50: 1.85 µM
  TGI: 14.2 µM
[12]
  GI50: 11.9 µM
  TGI: 77.6 µM
[13]
  GI50: 0.35 µM
  TGI: 23.9 µM
[14]
  GI50: 0.321 µM
  TGI: 4.56 µM
[15]
  GI50: 4.58 µM
  TGI: 63.5 µM
[16]
  GI50: 11.5 µM
  TGI: 54.6 µM
[17]
  GI50: 1.52 µM
  TGI: 20.6 µM
[18]
  GI50: 0.353 µM
  TGI: 10.3 µM
[19]
  GI50: 0.429 µM
  TGI: 33.5 µM
[58]
  GI50: 0.308 µM
  TGI: > 100 µM
[20]
  GI50: 1.57 µM
  TGI: 28.7 µM
[21]
  GI50: 0.618 µM
  TGI: 19.8 µM
[22]
  GI50: 0.71 µM
  TGI: 20.2 µM
[23]
  GI50: 0.498 µM
  TGI: 20.1 µM
[24]
  GI50: 0.583 µM
  TGI: 21.6 µM
[25]
  GI50: 2.18 µM
  TGI: 23.5 µM
[26]
  GI50: 0.233 µM
  TGI: 0.778 µM
[27]
  GI50: 1.2 µM
  TGI: 4.9 µM
[28]
  GI50: 0.654 µM
  TGI: 23.2 µM
[29]
  GI50: 5.39 µM
  TGI: > 100 µM
[30]
  GI50: 2 µM
  TGI: 17.1 µM
[31]
  GI50: 0.787 µM
  TGI: 15.2 µM
[32]
  GI50: 0.305 µM
  TGI: 2.38 µM
[33]
  GI50: 0.43 µM
  TGI: 15 µM
[34]
  GI50: 22.7 µM
  TGI: > 100 µM
[35]
  GI50: 4.33 µM
  TGI: 31.9 µM
[36]
  GI50: 1.6 µM
  TGI: 18.1 µM
[37]
  GI50: 1.9 µM
  TGI: 57.6 µM
[38]
  GI50: 1.31 µM
  TGI: > 100 µM
[39]
  GI50: 1.52 µM
  TGI: 11.1 µM
[40]
  GI50: 6.89 µM
  TGI: 51.7 µM
[41]
  GI50: 0.316 µM
  TGI: 10.2 µM
[42]
  GI50: 0.708 µM
  TGI: 3.24 µM
[43]
  GI50: 0.318 µM
  TGI: 1.06 µM
[44]
  GI50: 10.4 µM
  TGI: 27.3 µM
[45]
  GI50: 0.966 µM
  TGI: 7.39 µM
[46]
  GI50: 3.68 µM
  TGI: 74.9 µM
[47]
  GI50: 0.93 µM
  TGI: 21.7 µM
[48]
  GI50: 0.721 µM
  TGI: 31.5 µM
[50]
  GI50: 0.387 µM
  TGI: > 100 µM
[51]
  GI50: 0.479 µM
  TGI: 29.1 µM
[52]
  GI50: 4.1 µM
  TGI: > 100 µM
[53]
  GI50: 8.09 µM
  TGI: > 100 µM
[54]
  GI50: 0.505 µM
  TGI: 17.5 µM
[55]
  GI50: 14.1 µM
  TGI: 88.7 µM
[56]
  GI50: 0.402 µM
  TGI: 17.1 µM
[57]
  GI50: 1.82 µM
  TGI: 49.7 µM
